In patent US20240173347A1, “COMPOSITIONS FOR RAISING NAD LEVELS AND METHODS AND USES THEREOF” (ACCURI, LLC, priority 2022, published 2024):

Test system: intracellular NAD
Assay: Intracellular NAD levels in users before and after supplementation
Type: in vivo, human
Conditions: intravenous infusion, 5 sessions of 750 mg

NC(=O)c1ccc[n+]([C@@H]2O[C@H](COP(=O)([O-])OP(=O)(O)OC[C@H]3O[C@@H](n4cnc5c(N)ncnc54)[C@H](O)[C@@H]3O)[C@@H](O)[C@H]2O)c1 [NAD+, Nicotinamide adenine dinucleotide]
Effect on intracellular NAD levels: does not increase
